# Marks after values point to notes of the source that are not given here.
# Key:
# [1] = test system: Raji cells; assay: Cytotoxicity study, MTS cell proliferation assay, 5 days; format: cell-based, human; conditions: Homo sapiens, Raji
# Procedure: (§1) The human Burkitt lymphoma cell line Raji was obtained from the American Type Tissue Culture Collection and cultured in RPMI 1640 medium (ATCC) supplemented with 10% fetal bovine serum (ATCC,) at 37° C., 5% CO2. The COMPOUND I-resistant Raji (Raji/COMPOUND IR) cell line was generated by exposure to progressively higher concentrations of COMPOUND I over a period of 6 months. CAOV3 cells were obtained from ATCC and cultured in complete DMEM supplemented with 10% fetal bovine serum. MCF7 vector controlled and BRCA1 shRNA subclones were obtained from Dr. Simon Powell (Memorial Sloan-Kettering Cancer Center) and cultured in EMBM with 10% fetal bovine serum. MCF10A and hTERT-IMEC clones were obtained from Dr. Ben Ho Park (Johns Hopkins University). HCT116 BRCA2^+/+ cells and BRCA2^−/− cells were obtained from Dr. Samuel Aparicio (British Columbia Cancer Research Centre). PEO1 and PEO4 cells were obtained from Dr. Sharon Cantor (University of Massachusetts) and these cell lines were cultured under the same conditions as previously published. Sakai et al., Functional restoration of BRCA2 protein by secondary BRCA2 mutations in BRCA2-mutated ovarian carcinoma, Cancer Res. 2009; 69 (16):6381-6; Konishi et al., Mutation of a single allele of the cancer susceptibility gene BRCA1 leads to genomic instability in human breast epithelial cells, Proc. Natl. Acad. Sci. 2011; 108 (43):17773-8; Xu et al., CX-5461 is a DNA G-quadruplex stabilizer with selective lethality in BRCA1/2 deficient tumours, Nature Communications 2017; 8:14432, all of which are hereby incorporated by reference.
# (§2) Cells were plated and treated with the indicated drugs in 96-well plates for 5 days. Cell viability was measured using CellTiter 96 AQueous one solution (MTS) cell proliferation assay purchased from Promega, and IC50 values were calculated using GraphPad Prism 6 Software.
# [2] = test system: Raji/COMPOUND IR cells; assay: as above; format: cell-based, human; conditions: for RR (relative resistance): Raji/COMPOUND IR vs Raji; for IC50: Homo sapiens, Raji
# Procedure: as §1, §2
# [3] = test system: BIK, BAD, MCL-1 in Raji cells; assay: Western blot of proteins involved in apoptosis; format: cell-based, human; conditions: 0.5 μM, 24 h, n=3
# [4] = test system: MYC in AML cell lines; assay: MYC mRNA (qRT-PCR) and protein (Western blot) levels; format: cell-based; conditions: all AML cell lines tested, 24 hours
# Procedure: (§3) Cells were treated with vehicle or COMPOUND I at various concentrations for 24 hours or at a single concentration for 1, 3, 6, 12, and 24 hours before harvesting. Cells were lysed by QiaShredder columns (QIAGEN, catalog #79656), total RNA was isolated using QIAGEN RNeasy Plus Mini Kit (catalog #74134), and cDNA was synthesized utilizing Transcriptor Universal cDNA master mix (Roche, catalog #05893151001) and then used for qRT-PCR analysis using FastStart essential DNA probes master mix (Roche, catalog #06402682001) and Roche LightCycler96. Primer probe pairs were purchased from IDT (Table 5). Expression was calculated as fold change over vehicle treated samples after normalizing to GAPDH […].
# Cells were treated as described above. Whole-cell lysates were prepared, separated by SDS-PAGE, and transferred to nitrocellulose membranes. Densitometry was performed using ImageJ or Image Studio Lite Version5.2 software and normalized to the density of GAPDH.
# MYC expression is implicated in the pathogenesis of a wide range of cancers, including leukemia and lymphoma. […] It was also observed that an increased transcription of genes negatively regulated by MYC in COMPOUND I-treated MV4-11 cells. […] The time course of MYC protein repression in MV4-11 cells paralleled inhibition of MYC gene expression levels detected by RNA-seq. […]
# [5] = test system: KLF4 and CDKN1A expression in AML cell lines; assay: qRT-PCR of KLF4 and CDKN1A (p21) expression; format: cell-based
# Procedure: as §3
# Previous studies reported upregulation of KLF4 and CDKN1A expression as a potential mechanism of APT0-COMPOUND I activity in tumors. […] The upregulation of CDKN1A mRNA increased with duration of exposure in all AML cell lines tested (FIGS. 15D and 15E). At later time points, CDKN1A expression began to decrease, likely due to increasing cell death. Induction of CDKN1A expression is typically associated with a subsequent G0-G1, cell-cycle arrest, which was observed following COMPOUND I treatment of solid tumor lines.
# [6] = test system: MV4-11, EOL1, or KG-1 cells; assay: Detection of reactive oxygen species (molecular sensors, GSH changes); format: cell-based
# From the text: In addition, cells harboring BRCA1/2 mutations are hypersensitive to COMPOUND I, further supporting a role for DNA damage in COMPOUND I mechanism of action. COMPOUND I consistently produced upregulation of CDKN1A, which mediates arrest in G0-G1. In addition, CDKN1A can be induced after DNA double-strand breaks to block cell-cycle progression to allow for sufficient time to repair DNA. In combination with CDKN1A induction, COMPOUND I increased KLF4 gene expression in many AML cell lines, which is known to regulate CDKN1A as part of the G1 cell-cycle checkpoint. […] The role of KLF4 in COMPOUND I mechanism of action is of interest for future studies.
compound,measurement,setting,value
"Cc1[nH]c2ccc(F)cc2c1-c1nc2c3cccnc3c3ncccc3c2[nH]1 [COMPOUND I, 2-(5-fluoro-2-methyl-1H-indol-3-yl)-1H-imidazo[4,5-f][1,10]phenanthroline]",IC50,"[1]; 120 h, parental Raji cells, growth rate during 120 h exposure",91.9 ± 22.3 nM
same,IC50,[1]; COMPOUND I + 5 nM Ko143,98.3 ± 0.8 nM
same,IC50,[1]; COMPOUND I + 50 nM Ko143,103 ± 2.9 nM
same,IC50,"[1]; COMPOUND I alone, mean ± SEM",105 nM
same,fold resistant to COMPOUND I (Raji/COMPOUND IR over sensitive Raji),[2],16.7±3.9 fold
same,RR (relative resistance),[2]; COMPOUND I + 5 nM Ko143,10.9 ± 1.9^c
same,RR (relative resistance),[2]; COMPOUND I + 50 nM Ko143,2.5 ± 0.7^a
same,RR (relative resistance),[2]; COMPOUND I alone,16.7 ± 3.9^b
same,IC50,"[2]; COMPOUND I + 5 nM Ko143, Raji/COMPOUND IR",853 ± 44 nM
same,IC50,"[2]; COMPOUND I + 50 nM Ko143, Raji/COMPOUND IR",201 ± 20.7 nM
same,IC50,"[2]; COMPOUND I alone, Raji/COMPOUND IR, mean ± SEM",1390 ± 94 nM
same,IC50,[2]; Raji/COMPOUND IR cells,1390 ± 98.5 nM
same,BAD increase vs DMSO control,[3],2.1±0.25 fold
same,BIK increase vs DMSO control,[3],47.5±16.8%
same,MCL-1 decrease vs DMSO control,[3],38.1±2.3%
same,MYC mRNA and protein levels,[4],concentration-dependent decrease in both MYC mRNA and protein levels
same,AML cell lines with upregulated KLF4 expression,"[5]; 24 hr treatment, FIG. 15A",4 of 6
same,CDKN1A (p21) expression,[5]; FIGS. 15B and 15C,induced in all AML cell lines in a concentration-dependent manner
same,generation of reactive oxygen species,[6],no such species have been detected
